Measured values taken from patent US20090111781A1, “Use of Cymipristone Type Compounds in Aids Treatment” (SHANGHAI THREE-ALLIANCE BIOTECHNOLOGIES CO., LTD., priority 2005, published 2009).
Converted amounts (≈) assume the structure as drawn.

Key:
[1] = target: T1, glucocorticoid receptor of rat hepatic cytoplasm (Rattus norvegicus, UniProt P06536); assay: Competition inhibition of [3H]-dexamethasone binding in rat hepatic cytoplasm
T1 construct: centrifuge at 175000 g for 1 hour, and take out the supernatant liquid as reserve; from tissue; host or cells: liver cytosol (175000 g supernatant) of adrenalectomised female SD rats
T1 sequence (P06536 1-795): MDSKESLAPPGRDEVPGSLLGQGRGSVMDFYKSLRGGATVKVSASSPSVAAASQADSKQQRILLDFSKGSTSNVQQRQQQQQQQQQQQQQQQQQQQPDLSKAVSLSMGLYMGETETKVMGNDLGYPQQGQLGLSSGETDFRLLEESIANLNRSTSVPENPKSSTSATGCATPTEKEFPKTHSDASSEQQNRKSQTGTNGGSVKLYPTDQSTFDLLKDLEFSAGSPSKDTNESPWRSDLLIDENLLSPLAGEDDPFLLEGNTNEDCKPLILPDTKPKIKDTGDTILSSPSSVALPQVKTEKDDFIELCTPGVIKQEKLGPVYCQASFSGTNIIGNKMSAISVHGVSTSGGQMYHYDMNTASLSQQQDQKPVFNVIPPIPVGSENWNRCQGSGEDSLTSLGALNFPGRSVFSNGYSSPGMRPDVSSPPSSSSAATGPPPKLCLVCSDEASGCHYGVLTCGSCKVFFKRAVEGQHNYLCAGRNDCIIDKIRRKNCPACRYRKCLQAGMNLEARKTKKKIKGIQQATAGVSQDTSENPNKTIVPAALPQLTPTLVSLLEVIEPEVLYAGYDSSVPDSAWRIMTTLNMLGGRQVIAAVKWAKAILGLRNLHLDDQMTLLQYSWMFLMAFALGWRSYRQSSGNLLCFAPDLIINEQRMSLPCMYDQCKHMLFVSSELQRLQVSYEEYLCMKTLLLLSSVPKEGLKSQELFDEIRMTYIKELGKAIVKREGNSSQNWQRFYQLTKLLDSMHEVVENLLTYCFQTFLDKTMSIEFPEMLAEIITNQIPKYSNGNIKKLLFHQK
Description: Clean female SD rats, body weight 200-250 g, are fed with certain quantity of food and freely drink water. The temperature is controlled at about 24° C. and an illumination cycle are for 11 hours by day and 13 hours at night. All animals are observed for 1 week before experiment. Incisions are made on two sides below arch of ribs on dorsal position of rats to extirpate adrenal glands. After operation, the rats are fed with physiological saline to maintain water-electrolyte balance. On the third day after operation, animals are acutely executed. The liver is taken out immediately and placed in ice cold buffer solution; the blood should be washed off as much as possible. Take certain quantity of tissue, add buffer solution (1:4), cut the tissue with scissors, intermittently homogenize the tissue under low temperature, centrifuge at 175000 g for 1 hour, and take out the supernatant liquid as reserve. […] Then carry out the competition inhibition experiment.

[2] = system: MT-4 cells; assay: Cytotoxicity in MT-4 cell culture by cytopathic method (CPE); format: cell-based, human
Description: (§1) Set virus TCID50 determination group and cell control group. Each concentration is duplicated in two pore. Incubate under 37° C., 5% CO2 and saturated humidity in an incubator. Daily observe the cytopathy in above culture plate by microscope, record the degree of cytopathy with routine method, and calculate the 50% toxic concentration (TC50) and maximum nontoxic concentration (TC0) of drug according to Reed & Muench method. […] [formula]

[3] = as above; format: cell-based, human; conditions: human, MT-4 cells infected with HIV-1 IIIB, read-out: Cytotoxicity TC50, CPE
Description: as §1

[4] = target: estrogen receptor ERβ (Homo sapiens, UniProt Q92731); assay: Binding activity on human nuclear receptor ERβ; conditions: mean ± SD, n = 4
Chain of estrogen receptor ERβ (Q92731 whole entry): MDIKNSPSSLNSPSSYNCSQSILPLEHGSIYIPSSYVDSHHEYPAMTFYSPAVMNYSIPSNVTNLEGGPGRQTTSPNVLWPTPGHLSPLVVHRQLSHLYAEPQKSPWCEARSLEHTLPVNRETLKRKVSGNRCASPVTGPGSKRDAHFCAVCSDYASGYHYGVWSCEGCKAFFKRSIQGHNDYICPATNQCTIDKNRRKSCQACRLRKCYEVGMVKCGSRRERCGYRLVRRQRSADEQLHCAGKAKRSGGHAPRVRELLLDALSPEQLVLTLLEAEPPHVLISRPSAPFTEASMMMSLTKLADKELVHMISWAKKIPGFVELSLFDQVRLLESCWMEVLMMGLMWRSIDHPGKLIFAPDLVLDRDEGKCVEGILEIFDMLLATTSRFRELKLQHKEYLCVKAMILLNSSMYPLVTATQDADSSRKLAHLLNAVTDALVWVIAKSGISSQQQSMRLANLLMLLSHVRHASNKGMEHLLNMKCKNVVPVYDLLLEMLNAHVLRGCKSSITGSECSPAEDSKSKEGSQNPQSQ
Description: Buffer solution is composed of 25 mM NaPO4, 20 mM NaMoO4, 10 mM KF and 10% glycerol (pH=7.3) and stored under 4° C. Stock solution is prepared with CHAPS and DTT and stored under −20° C. […] Add 2.5 μl/hole into 96-pore plate. Take out appropriate amount of buffer solution reserve into solution to make the final concentration of CHAPS and DDT to become 0.25 mM and 2 mM respectively. Add protease inhibitors (aprotinin and leupeptin) to make its final concentration to become 1 μg/μl, and place in an ice bath. After adding human nuclear receptor GR (1:8), PR (1:100), ER (1:2000), AR (1:200) and MR (1:40) into the reaction system respectively, adequately mix suitable quantity of [^3H]-dexamethasone, [^3H]-progesterone, [^3H]-estradiol and [^3H]-DHT (from Amersham), rapidly add into 96-pore plate (100 μl/pore) and incubate overnight under 4° C. On the next day, add 25 μl of hydroxyapatite suspension into each pore and mix with shaking. After incubating for 10 min, separate by centrifuge for 3 min at 2500 rpm. The precipitate is washed with 100 μl of buffer solution and separated by centrifuge twice. Add 150 μl of scintillation solution (from Perkin Elmer) into each pore, mix with shaking and count by MicroBeta counter.

[5] = system: HIV-1 AZT-sensitive strain 018a P24 antigen; assay: Inhibition of HIV-1 018a P24 antigen in PBMC cell culture; format: cell-based; conditions: for EC50: Human immunodeficiency virus 1, PBMC, 2 h, administration after adsorbing 2 hours
Description: Collect cells with curette, infect cells with 10^−2 AZT sensitive (018a) or AZT resistant (018c) virus strain liquid, and adsorb for 2 hours, Wash off unabsorbed virus with 1640 culture medium without serum, prepare cells infected by virus to 1×10^6/ml with culture solution, and inoculate on 96-pore culture plate, 100 μl/pore. […] Set cell control group and virus infected cell control group. Incubate under 37° C. and 5% CO2. On the fourth day (96 hours), pipette out the supernatant liquid and store under −20° C. for determination of HIV-1 P24 antigen titer and calculation of drug inhibitory action. Add MTT staining to cells for determination of cytotoxicity. Determination of cytotoxicity by MTT staining: Add 10 μl of 5 mg/ml MTT stain into each pore, continue to incubate under 37° C., 5% CO2 and saturated humidity for 4 hours. […] Determine the HIV-1 P24 antigen titer according to the operation procedure provided by the HIV-1 P24 antigen reagent kit. Compare the drug-added group with virus control group. […] Calculation method of 50% toxic concentration (CC50), 50% effective concentration (EC50) and selection index (SI):
(3) Calculation Method of Selection Index (SI) on HIV-1 P24 Antigen in Cell Culture SI=CC50/EC50

In the case of CC#C[C@]1(O)CC[C@H]2[C@@H]3CCC4=CC(=O)CCC4=C3[C@@H](c3ccc(N(C)C4CCCCC4)cc3)C[C@@]21C [Cymipristone, 11β-[4-(N-methyl-N-cyclohexylamino)phenyl]-17α-(1-propynyl)-17β-hydroxyl-4,9-estradiene-3-one], the IC50 ratio ([1]; cymipristone : mifepristone) is reported as 1.00, the RBA ratio ([1]; dexamethasone : cymipristone : mifepristone) is reported as 5.6 and the “Relative binding activity RBA” value ([1]; dexamethasone as 100, mean ± SD, n = 4) is reported as 557.69 ± 65.23%. It also gave an IC50 ([1]; mean ± SD, n = 4) of 2.6 nM, an inhibition at 0.1 µM ([1]; tested compound 1 × 10^−7 mol/L, mean ± SD, n = 4, read-out: Inhibition rate on binding of [3H]-dexamethasone) of 88.9 ± 9.01% and an inhibition at 0.02 µM ([1]; tested compound 2 × 10^−8 mol/L, mean ± SD, n = 4, read-out: Inhibition rate on binding of [3H]-dexamethasone) of 75.6 ± 3.56%. For the same compound, the inhibition at 0.004 µM ([1]; tested compound 4 × 10^−9 mol/L, mean ± SD, n = 4, read-out: Inhibition rate on binding of [3H]-dexamethasone) was 54.5 ± 4.24%, the inhibition at 0.5 µM ([1]; tested compound 5 × 10^−7 mol/L, mean ± SD, n = 4, read-out: Inhibition rate on binding of [3H]-dexamethasone) was 95.4 ± 5.34% and the inhibition at 0.0008 µM ([1]; tested compound 8 × 10^−10 mol/L, mean ± SD, n = 4, read-out: Inhibition rate on binding of [3H]-dexamethasone) was 31.2 ± 3.87%. The inhibition at 0.0016 µM ([1]; tested compound 16 × 10^−10 mol/L, mean ± SD, n = 4, read-out: Inhibition rate on binding of [3H]-dexamethasone) was 17.2 ± 6.76%, the “Cytotoxicity TC50, CPE” value [2] was 7.704 µg/mL and the CC50 [3] was 15.5 µM. The IC50 [4] was 278.7 ± 0.63 nM, the EC50 ([5]; Average, PBMC) was 12.4 µg/mL (≈ 24.8 µM) and the EC50 ([5]; Experiment 1, PBMC) was 12.5 µg/mL (≈ 25.1 µM). The EC50 ([5]; Experiment 2, PBMC) was 12.2 µg/mL (≈ 24.6 µM), the SI ([5]; SI=CC50/EC50, Average) was 10.53 and the SI ([5]; SI=CC50/EC50, Experiment 1) was 8.30. The SI ([5]; SI=CC50/EC50, Experiment 2) was 12.76.
